Assay results: patent publication US20230114264A1, “ACTIVATION OF LYTIC GENES IN CANCER CELLS” (priority 2020, published 2023)

Assays:
Type in all cases: cell-based, Epstein-Barr virus (EBV)
[1] = test system: EBV lytic genes; test: EBV lytic gene induction in DOX-induced C666-1 dCas9-Tet-on-PUFa-p65HSF1 gRNA cells
From the text: (§1) SNU-719 and C666-1 cancer cells stably expressing HA-dCas9-EGFP and BZLF1 gRNA (A5) were modified to inducibly express 3×FLAG-PUFa-p65HSF1 using a Tetracycline response element (Tet-On). […] This reactivation of EBV slows the growth rate of cells by greater than 4 fold compared with cells treated with ganciclovir (GCV) alone, a current standard treatment for EBV infection (FIGS. 3B, 6A, 8H-8I). Further, treatment with BZLF1 gRNA (A5) decreases C666-1 cell viability by 50-70% relative to control (FIG. 6B).
(§2) Producing Tet-on PUFa-p65HSF1 cell line. SNU-719 or C666-1 cells stably expressing HA-dCas9-EGFP were seeded into a 60 mm culture dish at 70% density. The cells were transfected with 1 μg hyPBase (transposase) and 2 μg dox-inducible PUFa-p65HSF1 in a piggyBac vector plasmid through Lipofectamine 2000 reagent (Invitrogen). At 6 hours post-transfection, cell culture medium was exchanged. At 48 hours post-transfection, cells were selected with hygromycin antibiotics.
(§3) Producing Tet-on PUFa-p65HSF1 and BZLF1 gRNA (3) cell line. The day prior to transfection, HEK-293FT cells were seeded into a 10 cm culture dish at 70% density. […]. At 6 hours post-transfection, medium was exchanged for fresh. At 48 hours post-transfection, 5 mL of medium containing the lentivirus was collected and centrifuged for 10 minutes at 2,000 rpm to remove cellular debris. The supernatant was filtered through a 0.45-micron filter (Millipore), and the lentivirus was collected. SNU-719 dCas9-Tet-on-PUFa-p65HSF1 or C666-1 dCas9-Tet-on-PUFa-p65HSF1 cells were seeded into a 10 cm culture dish at 60% density per dish, transduced with 7 mL of the BZLF1 gRNA (A5) lentivirus in culture medium supplemented with 8 μg/mL polybrene for 48 hours, and subsequently selected with Puromycin antibiotics on the third day post-transduction.
(§4) RNA in-situ hybridization ISH (RNAscope®). Doxycycline (DOX) treated or untreated SNU-719 HA-dCas9-EGFP-Tet-on-PUFa-p65HSF1-BZLF1 gRNA (A5) cells or C666-1-HA-dCas9-Tet-on-PUFa-p65HSF1-BZLF1 gRNA (A5) cells were incubated for 48 hours. […]

[2] = test system: BZLF1; test: EBV reactivation by BZLF1 gRNA transfection (Casilio) in C666-1 cells stably expressing HA-dCas9-EGFP and 3×FLAG-PUFa-p65HSF1
Method: (§5) SNU-719 and C666-1 cells stably expressing HA-dCas9-EGFP and 3×FLAG-PUFa-p65HSF1 were cultivated in RPMI-1640 (Sigma) with 10% fetal bovine serum (FBS) (Gibco) and 1% GlutaMAX (Gibco) and cultured in 37° C. incubator with 5% CO2. EBV reactivation experiments were conducted with cells seeded into 6-well plates at 2×10^6 cells per well the day before transfection. 2 micrograms (μg) of control gRNA or individual BZLF1 gRNA (A3) (SEQ ID NO: 8), gRNA (A4) (SEQ ID NO: 9), gRNA (A5) (SEQ ID NO: 10), or gRNA (A6) (SEQ ID NO: 11) gRNAs were transfected into cells with Lipofectamine 2000 (Invitrogen). After transfection, cells were grown for 48 hours and harvested for protein extraction or FACS (FIGS. 4, 5, 7A-7E).
(§6) FACS Analysis. Cells were harvested with trypsin and fixed for 15 minutes (mins) with 4% paraformaldehyde. The cells were then centrifuged at 2000×g for 5 mins and resuspended in 3% BSA for 30 mins. The resuspend cells were centrifuged again at 2000×g for 5 mins. Samples were stained with Alexa-647 conjugated anti-BZLF1 monoclonal antibody for 2 hours. Samples were analyzed on a FACSCalibur flow cytometer using CellQuest Pro software (BD Bioscience). Thousands of events were collected in each run.
Quantitative RT-PCR Analysis. Cells were harvested with trypsin, centrifuged at top speed for 1 min, and RNA was extracted using TRIzol reagent (Invitrogen). 2 μg of total RNA was used to produce a cDNA library using Superscript III Reverse Transcriptase. SYBR Green gene expression assays (Roche) were performed using the GAPDH primers as endogenous control and primers targeting the EBV lytic genes BZLF1, BGLF4, BLRF2 were used to assess EBV reactivation. Power SYBR Green master mix was used for performing real-time quantitative PCR (RT-qPCR). Each reaction was performed with 2 μL of 1:3 diluted cDNA. The RT-qPCR samples were analyzed with a Roche LC480 PCR instrument. Gene expression levels were calculated by “delta Ct” algorithm and normalized to control samples.

[3] = test system: BZLF1; test: EBV reactivation by BZLF1 gRNA transfection (Casilio) in SNU-719 cells stably expressing HA-dCas9-EGFP and 3×FLAG-PUFa-p65HSF1
Method: as §5
as §6, with “Samples were stained with Alexa-647 conjugated anti-BZLF1 monoclonal antibody for 2 hours.” left out, “Thousands of events were collected in each run.” left out
Quantitative RT-PCR Analysis. […] Power SYBR Green master mix was used for performing real-time quantitative PCR (RT-qPCR). […] The RT-qPCR samples were analyzed with a Roche LC480 PCR instrument. Gene expression levels were calculated by “delta Ct” algorithm and normalized to control samples.

[4] = test system: EBV lytic genes; test: EBV lytic gene induction in DOX-induced SNU-719 dCas9-Tet-on-PUFa-p65HSF1 gRNA cells
From the text: as §1, §2, §3, §4

[5] = 1 μg/mL Doxycycline (DOX), Example 10
[6] = 3×FLAG-PUFa-p65HSF1 induced with 1 μg/mL Doxycycline

BZLF1 gRNA (A5): BZLF1 gRNA spacer sequence SEQ ID NO: 10, GAAACTATGCATGAGCCAC (chemistry not given here)
expression of other EBV lytic genes including BRLF1 (Rta), BGLF4 (PK), BFRF3 (VCAp18), BMRF1, BdRF1 and BLLF1 ([1]; 1 μg/mL DOX): induces the expression of other EBV lytic genes
BZLF1 (Zta) reactivation [1, 5]: reactivated BZLF1 (Zta)
induction of the BZLF1, BGLF4, BMRF1, and BFRF3 (VCAp18) EBV lytic genes [1, 6]: reactivated EBV
EBV reactivation, induction of BZLF1 (Zta) protein expression ([2]; C666-1, 2 μg gRNA, 48 hours after transfection, protein extraction or FACS): reactivate EBV expression at detectable levels
BZLF1 (ZTa) protein expression by immunostaining ([2]; C666-1, FIG. 7D): activated BZLF1 (ZTa) protein expression
expression of the downstream EBV genes BGLF4 and BLRF2 ([2]; RT-qPCR, FIG. 7F, cell line not stated): induces the expression of the downstream EBV genes BGLF4 and BLRF2
EBV reactivation, induction of BZLF1 (Zta) protein expression ([3]; 2 μg gRNA, 48 hours after transfection, protein extraction or FACS): reactivate EBV expression at detectable levels
BZLF1 (ZTa) protein expression by immunostaining ([3]; FIG. 7E): activated BZLF1 (ZTa) protein expression
expression of other EBV lytic genes including BRLF1 (Rta), BGLF4 (PK), BFRF3 (VCAp18), BMRF1, BdRF1 and BLLF1 ([4]; 1 μg/mL DOX): induces the expression of other EBV lytic genes
BZLF1 (Zta) reactivation [4, 5]: reactivated BZLF1 (Zta)
induction of the BZLF1, BGLF4, BMRF1, and BFRF3 (VCAp18) EBV lytic genes [4, 6]: reactivated EBV
